The source of these data is US20080050387A1, “Non-Androgen Dependent Roles for Androgen Receptor and Non-Androgen Related Inhibitors of Androgen Receptor” (priority 2003, published 2008).

One data set relates to MAPK. To be noted: cited from earlier work.
For data set [1], the system named is AR. Briefly: Mammalian two-hybrid assay hRad9 / AR in PC-3 cells. The data set is classed as cell-based, human. On the procedure:
PC-3, CWR22R, and LNCaP cell lines were maintained in […] supplemented with 10% fetal calf serum (FCS). Transient transfection for luciferase assays was carried out in 24-well plates (5×10^4 cells per well) using SuperFect as described previously (Lin, H. K., et al., Embo J 21:4037-48 (2002)). DNA mixtures in transfection assay were indicated in each figure. The total amount of transfected DNA was kept constant (1 μg) by adding the corresponding amounts of empty expression plasmids. After transfection, cells were cultured in […] supplemented with 5% charcoal-stripped FCS in the presence or absence of 10 nM dihydrotestosterone (DHT) for 18 h. Luciferase assays were performed as previously described (Yang, L., et al., J Biol Chem 278:16820-7 (2003)). In Western blotting assays, CWR22R or LNCaP cells were transfected by electroporation using 5×10^6 cells/0.4 ml of RPMI medium containing 2% FCS plus 9 μg of the indicated plasmids. 1 μg of EGFP expression vector was used for transfection efficiency. Electroporation was performed at 250 V and 950 μF using Gene Pulser II (Bio-Rad)

For another data set, the system named is COS-1 and H1299. As to the kind of experiment: TSA toxicity in transfected cells.
Data set [2] relates to AR. Briefly: TSA effect on AR transactivation, reporter assay in COS-1 cells. The data set is classed as cell-based, human. To be noted: 1 nM TSA. The method, then:
H1299 and COS-1 cells were maintained in Dulbecco's modified Eagle's medium (DMEM) (Life Technologies, Inc.) supplemented with 10% heat inactivated fetal bovine serum (FBS). LNCap cells were maintained in RPMI 1640 supplemented with […]. All media contain 100 units penicillin, 100 μg/ml streptomycin and 2 mM L-glutamine. Cells were seeded to a density of 50-60% confluency for transfection. In transfections where H1299 and COS-1 cells were used, the calcium phosphate precipitation method was used as described (Pan H J, et al. 1999. Endocrine 11:321-327) unless otherwise noted. […] In other reporter gene assays, where ligand treatment was required, cell culture media were changed to DMEM containing 10% charcoal-dextran-stripped FBS (CD-FBS) 2 h before transfection. After 16-18 h transfection, cells were treated with medium containing either vehicle or ligands for another 20-24 h and then cells were harvested. With LNCap cells transfection, the cells were treated with fresh RPMI 1640 containing 10% CD-FBS before transfection with SuperFect performed according to the manufacturer's protocol (Qiagen). After transfection, cells were allowed to recover in fresh RPMI 1640 containing 10% CD-FBS for 8-12 h, and then treated with either vehicle or ligands for another 20-24 h before harvesting. Each experiment was repeated at least three times.

Data set [3] relates to AR. Briefly: AR transactivation luciferase assay in COS-1 cells with GSK3β. The data set is classed as cell-based, human. The conditions noted are these: ARE4-Luc, 10 nM DHT. On the procedure: (§1) COS-1 and PC-3 cells were maintained in early to mid-log phase in DMEM medium, supplemented with 10% fetal bovine serum (FBS), 50 units/ml penicillin and 50 μg/ml streptormnycin in incubators with humidified air and 5% carbon dioxide at 37° C. LNCaP cells were maintained in RPMI (GIBCO/BRL) medium. Twenty-four h prior to transfection, cells washed with Hanks' buffered saline solution, trypsinized, and seeded to be a density of 40-60% confluence for transfection. Cells in 12 well plates were refed with fresh medium 2 hours before transfection and transfected according to the “SuperFect Transfection” instructions (QIAGEN). After 2-3 h incubation, cells were treated with medium supplemented with charcoal-dextran treated FBS containing either ethanol or ligands. Cells were further incubated at 37° C. for 24 h, washed with PBS, and harvested.
Target sequence in this assay (P10275 with tags, fused parts or gaps DEL79-80/DUP473-473): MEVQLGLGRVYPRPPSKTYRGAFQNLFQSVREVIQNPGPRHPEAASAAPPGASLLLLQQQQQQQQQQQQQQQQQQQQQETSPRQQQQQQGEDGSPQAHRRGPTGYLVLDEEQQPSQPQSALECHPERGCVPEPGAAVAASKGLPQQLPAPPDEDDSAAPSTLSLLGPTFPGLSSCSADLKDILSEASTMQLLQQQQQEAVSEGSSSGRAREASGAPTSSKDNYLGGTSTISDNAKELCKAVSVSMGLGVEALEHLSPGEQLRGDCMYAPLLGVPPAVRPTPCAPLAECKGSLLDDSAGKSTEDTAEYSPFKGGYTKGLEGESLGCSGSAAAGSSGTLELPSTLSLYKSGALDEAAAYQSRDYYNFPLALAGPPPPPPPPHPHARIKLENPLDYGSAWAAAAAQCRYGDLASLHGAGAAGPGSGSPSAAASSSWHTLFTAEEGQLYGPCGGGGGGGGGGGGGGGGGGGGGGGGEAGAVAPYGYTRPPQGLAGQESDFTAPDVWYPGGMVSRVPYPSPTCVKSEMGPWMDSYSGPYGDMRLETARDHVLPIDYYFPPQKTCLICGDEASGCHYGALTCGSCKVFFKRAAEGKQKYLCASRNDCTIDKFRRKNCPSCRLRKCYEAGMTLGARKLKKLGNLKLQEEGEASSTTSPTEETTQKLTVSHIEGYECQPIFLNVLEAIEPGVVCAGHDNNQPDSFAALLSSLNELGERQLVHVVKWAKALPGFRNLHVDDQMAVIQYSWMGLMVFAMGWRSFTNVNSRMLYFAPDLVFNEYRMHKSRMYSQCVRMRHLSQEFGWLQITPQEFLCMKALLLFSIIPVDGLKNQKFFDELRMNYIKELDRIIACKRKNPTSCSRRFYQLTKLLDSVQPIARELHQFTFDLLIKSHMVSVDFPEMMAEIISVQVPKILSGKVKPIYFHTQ

A further data set has as its system CWR22R cells. As to the kind of experiment: MTT growth assay of stably transfected CWR22R cells. The class given is cell-based, human. The conditions noted are these: CWR22R-S9A-GSK3β cells, 10 nM DHT, 2 μg/ml doxycycline, 5 days. The method, then:
The MTT assay is a quantitative colorimetric assay for mammalian cell survival and proliferation. The 5×10^3 CWR22R cells were seeded in 24-well plates and incubated in RPMI medium 1640 with 5% CS-FCS for 48 h. Cells were then treated with ethanol, 10 nMDHT, and/or 2 μg/ml doxycycline for another 5 days. Then 200 μl of MTT (5 mg/ml; Sigma) was added into the each well with 1 ml of medium for 3 h at 37° C. After incubation, 2 ml of 0.04 M HCl in isopropyl alcohol was added into each well. After 5-min incubation at room temperature, the absorbance was read at a test wavelength of 570 nm.
Background: Tetrazolium assays rely on reduction of a dye to a coloured formazan, in cell work by metabolically active cells.

In data set [4] the test system is AR. Briefly: Luc reporter assay in stably transfected CWR22R cells. The class given is cell-based, human. The conditions noted are these: CWR22R-S9A-GSK3β cells, doxycycline induction. The method, then:
as §1
The S9A-GSK3β gene was inserted into pBig vector with hygromycin resistance. The S9A-GSK3β-transfected CWR22R cells were selected and maintained in RPMI medium containing 50 μg/ml hygromycin (GIBCO).
In general terms: Reporter assays use an easily measured gene product as a stand-in for the process of interest.

The subject of data set [5] is AR expression in AR^+/+ MCF7 cells. Briefly: AR siRNA transfection of AR+/+ MCF7 cells: Ki67 immunostaining, Ki67 and c-myc mRNA, S-phase entry. The data set is classed as cell-based, human. On the procedure:
All animal experimentation was conducted in accordance with accepted standards of humane animal care. Tissues were fixed in 4% paraformaldehyde for 24 h at 4° C. Paraffin-embedded tissues were sectioned (5-7 μm) onto Probe-On Plus charged slides (Fisher Scientific, Pittsburgh, Pa.). Fresh mammary gland tissues were frozen in liquid nitrogen and stored at −80° C. before RNA extraction. 3 μg of total RNA was reverse-transcribed (RT) and subjected to real-time PCR using iCycle (Bio-Rad). Primer sequences were designed by Beacon Designer II software (Bio-Rad) and the formula used were described previously (Bieche et al. 2001). β-Actin was used as an internal control.
For IHC, sections were heated at 55° C. at least 2 h, deparaffinized in xylene, rehydrated, and washed in Tris-buffered saline (TBS)/pH 8.0. For antigen retrieval, slides were microwaved in 0.01 M sodium citrate/pH 6.0, and immersed with 1% hydrogen peroxide in methanol for 30 min, then blocked with 20% normal goat serum in TBS for 60 min. After washing with PBS, sections were incubated for 90 min in different antibody of diluted 1:200 to 1:500 in TBS containing 1% bovine serum albumin (BSA), followed by goat anti-rabbit biotinylated secondary antibody diluted 1:300 in TBS containing 1% BSA. Then sections were incubated with ABC solution for 30 min, followed by development with DAB peroxidase substrate kit (Vector Laboratories) for 5 min. Slides were counterstained with hematoxylin for 30 sec, then dehydrated, cleaned in xylene, and mounted. Primary antibody was replaced with normal rabbit IgG or 1% BSA in TBS for negative controls. For BrdU labeling, BrdU reagent and BrdU staining kit were purchased from Zymed Laboratories.
A small interfering RNA was expressed in mammalian cells by transfection of a DNA-based vector BS/U6 (Sui et al. 2002) containing a homologous sequence ([…]-TAGCTAC SEQ ID NO:9), a 6-bp spacer (CTCGAG), an inverted homologous sequence ([…] SEQ ID NO:10), and 5 Ts, at the transcription initiation site of the U6 promoter. See SEQ ID NO. 11 and 12 for fall AR siRNA.

Data set [6] concerns MAPK (GAL4-Elk1 transactivation). Briefly: GAL4-Elk1 reporter gene assay (MAPK activation) in MCF7 cells. The class given is cell-based, human. On the procedure:
Cells were plated in 96-well plates and plasmids at 0.5 μg per well were transfected into cells using SuperFect (Qiagen). The medium was changed 2 h after transfection and cells were cultured in the medium containing 10% CDS-FBS or 0.2% HI-FBS for 16 h, followed by treatment with 50 ng/ml EGF, 100 ng/ml IGF-1,100 ng/ml HRG-α 0.1 nM E2, or 1 nM DHT for another 16 h. Cells were then harvested and the luciferase activity was analyzed using Dual-Luciferase Reporter Assay System (Promega). 5 ng pRL-TK per well was used as internal control.

[7] abbreviates: AR siRNA-transfected AR^+/+ MCF7 cells.

A value given as a limit tells only on which side of the number the result lay.

Take `COc1cccc(-c2cc(=O)c3ccccc3o2)c1N` [PD098059]: the “Her2/Neu-, H-Ras- or C-myc-initiated mammary tumor growth” value in the data set on MAPK (Amundadottir and Leder 1998) is “inhibit”. Besides, the “mammary gland alveolar morphogenesis” value with MAPK (Niemann et al. 1998) is reported as “inhibit”.
Take `CC(C)(O)C(=O)Nc1ccc([N+](=O)[O-])c(C(F)(F)F)c1` [HF, hydroxyflutamide, reference compound]: the “androgen-induced interaction between AR and hRad9” value with AR [1] (10^−5 M HF, 10^−8 M DHT) is listed as “inhibited”.
In the case of `CC(/C=C/C(=O)NO)=C\[C@@H](C)C(=O)c1ccc(N(C)C)cc1` [TSA, trichostatin A], the “TSA concentration causing significant cell death” value with COS-1 and H1299 was at least 10 nM. Further, the toxic effect entry in the data set with COS-1 and H1299 (1 nM TSA) is listed as “no obvious toxic effect”. Further, the “DHT-induced AR transactivation” value with AR [2] is “enhanced”.
On to “S9A-GSK3β: constitutively active form of GSK3β”, for which the “effect on AR activity” value in the data set on AR [3] is listed as “strongly inhibited”. In addition, the “cell growth (MTT assay)” value in the data set with CWR22R cells is “obvious growth arrest”. In addition, in the data set with AR [4], the “AR transactivation reduced by” value is listed as 30%.
Take “AR siRNA: small interfering RNA against AR expressed from the DNA-based vector BS/U6 (GGGCCCCTGGATGGATAGCTACCTCGAGGTAGCTATCCATCCAGGGGCC)”: in [5] (setting [7]), the Ki67 immunostaining entry is recorded as “lower degree”, the “mRNA level of Ki67 reduced by” value amounted to 42% and the “mRNA level of c-myc reduced by” value came out at 81%. Further, in [5] (AR^+/+ MCF7 cells, IGF-I/EGF/HRG-α), the “number of cells entering S-phase of the cell cycle” value is on record as “diminish”. Further, the “IGF-I/EGF/HRG-α-induced MAPK activation” value in [6] (AR^+/+ MCF7 cells transfected with AR siRNA) is “diminish”.
For `N#CC(=C(/N)Sc1ccccc1N)/C(C#N)=C(\N)Sc1ccccc1N` [U0126, reference compound], the “AR-activated GAL4-Elk1 activity” value in [6] (AR-FL-activated, pG5-luc reporter) is listed as “diminished”.
“PKKFRSLFFGSI [GAL4-FXXLF fusion peptides]”: the “interaction with AR” value in the data set with AR [1] (10 nM DHT) was “Androgen-dependent interactions were demonstrated”.
